Source: US9371275B2, “5-aminolevulinic acid prodrugs for use in photodynamic therapy and photodynamic diagnosis” (Swedish Pharma AB, priority 2008, dated 2016)

How the values were obtained:
[1] = test system: human living cells; experiment: PpIX synthesis in human living cells, spectrofluorometric measurements (fluorescence at 632 nm); format: cell-based
Excerpt: Using the spectrum of PpIX as reference (FIG. 2), a comparison between PpIX synthesis by the oxime compound according to the invention with that based on the methyl ester of 5ALA currently in clinical use (MetVix), was made on human living cells using spectrofluorometric measurements.
Diamonds=5ALA methyl ester (MetVix); Squares=5ALA oxime 20% w/w in Essex™ cream.

[2] = after application of 5ALA or known derivatives; cited from earlier work
[3] = after intravenous injection; very slow clearance rate from the body; cited from earlier work

SMILES: NCC(CCC(=O)O)=NO [5-ALA oxime]
- production of PpIX [1]: capable of producing PpIX
- time for which elevated levels of PpIX are retained after application ([1]; 5ALA oxime 20% w/w in Essex cream, human cells, fluorescence at 632 nm): at least 6 h
- concentration of PpIX generated compared with 5ALA methyl ester (MetVix) ([1]; 3 h after application, 5-ALA oxime 20% (w/w) in Essex cream, human cells): higher concentration of PpIX

SMILES: NCC(=O)CCC(=O)O [5ALA, 5-aminolevulinic acid]
- time after application at which PpIX concentration reaches optimal therapeutic window [2]: 2 to 4 h
- time in which PpIX concentration decays to normal background levels [2]: 36 to 48 h

SMILES: Oc1cccc(-c2c3nc(c(-c4cccc(O)c4)c4ccc([nH]4)c(-c4cccc(O)c4)c4nc(c(-c5cccc(O)c5)c5ccc2[nH]5)CC4)C=C3)c1 [Foscan, temoporfin]
- duration of patient hypersensitization [3]: up to 3 weeks
